# ChEMBL document CHEMBL3137547, “Open Source Malaria Deposition 2. http://malaria.ourexperiment.org”
# Tested on: Plasmodium falciparum
# Assay: OSM: Erythrocyte assay. NF54 with 3H-Hypoxanthine at 72hr time point.
# Format: functional, organism-based
row,Compound,EC50 [nM]
1,FC(F)Oc1ccc(-c2nnc3cncc(OCC4CCc5cc(Cl)ccc54)n23)cc1 (stereo unspecified),1460
2,FC(F)Oc1ccc(-c2nnc3cncc(Oc4ccc5c(c4)CCCC5)n23)cc1,2580
3,O=C(NCc1cc(Cl)ccc1Cl)c1cncc2nnc(-c3ccc(OC(F)F)cc3)n12,332
4,Fc1ccc(Cc2nccn2-c2cncc3nnc(-c4ccc(OC(F)F)cc4)n23)cc1F,10000
5,Fc1ccc(C(COc2cncc3nnc(-c4ccc(OC(F)F)cc4)n23)N2CCOCC2)cc1F (stereo unspecified),613
6,O=C(Cc1cccc(Cl)c1)Nc1cn2c(-c3ccc(OC(F)F)cc3)nnc2cn1,10000
7,O=C(Nc1ccc(F)cc1Cl)c1cncc2nnc(-c3ccc(OC(F)F)cc3)n12,5580
8,Fc1ccc2c(c1)CCN2c1nnc2cncc(OCCc3ccc(F)c(F)c3)n12,2050
9,FC(F)Oc1ccc(-c2nnc3cncc(Oc4ccc(C(F)(F)F)cc4)n23)cc1,383
10,O=C(NCCN1CCOCC1)c1cncc2nnc(-c3ccc(OC(F)F)cc3)n12,10000
11,FC(F)Oc1ccc(-c2nnc3cncc(Oc4cccc(Cl)c4)n23)cc1,3070

# Other lines, results leading:
row,EC50 [nM],Compound
1,263,FC(F)Oc1ccc(-c2nnc3cncc(Oc4ccc(S(F)(F)(F)(F)F)cc4)n23)cc1
2,1820,CC1=CC(C)(C)Oc2cc(Oc3cncc4nnc(-c5ccc(OC(F)F)cc5)n34)ccc21
3,1120,O=C1[C@H](Oc2cncc3nnc(-c4ccc(OC(F)F)cc4)n23)[C@H](c2ccc(F)c(F)c2)N1C1CC1
4,10000,Fc1ccc(Nc2cn3c(-c4ccc(OC(F)F)cc4)nnc3cn2)cc1F
5,9640,FC(F)Oc1ccc(-c2nnc3cncc(Nc4ccc(Cl)c(Cl)c4)n23)cc1
